The data set deals with GRN mRNA. Description: GRN mRNA qPCR in SK-N-AS cells transfected with ASOs. In kind it is cell-based, human. Particulars: SK-N-AS; for hGRN mRNA FC: Table 9, 48 hours post-transfection; for hGRN mRNA FC / 120 nM FC (GRN mRNA): 120 nM; for GRN mRNA upregulation as compared to control ASO CO-1589: Table 8 series. A digest of the protocol: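 Fold change in GRN mRNA, by qPCR with GAPDH/PPIA housekeeping normalization, referenced to steric non-targeting control ASO(s) such as CO-1589. ASOs were transfected into SK-N-AS neuroblastoma cells in dose titrations (20 to 160 nM initially). Cells were harvested 48 hours post-transfection.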
(In general: In qPCR the cycle at which signal appears reflects the starting amount.)

Setting [1] is: Table 10, 48 hours, normalized to CO-1589.
Where [2] appears, read: Table 7, normalized to CO-1589 (sNTC1).
The mark [3] stands for this setting: Table 8, normalized to CO-1589 (sNTC1).
Where [4] appears, read: Table 12, normalized to CO-1589.

Oligonucleotides are written 5' to 3', each unit as a sugar letter and its base; * is a phosphorothioate linkage, no mark a phosphodiester; rarer units and linkages stand in square brackets, end groups in braces. Plain capitals give the bases only. e = 2'-O-(2-methoxyethyl) (MOE); l = locked nucleic acid (LNA); [5mC] = 5-methylcytosine; d = 2'-deoxy (DNA)

Regarding “CO-4649: ASO designed to target intergenic enhancers (eRNA) (antisense eT*eG*eG*eG*eA*e[5mC]*eA*eG*e[5mC]*eG*eT*eG*eG*eA*eT*eT*eA*eA*eT*eA)”, for the setting “3.75 nM to 120 nM, 48 hours”, the “hit identification (GRN mRNA dose escalation)” value is recorded as “initial hits”. Moreover, the “hGRN mRNA FC” value (normalized to CO-1589) came to 1.2 FC. Besides, the “3.75 nM FC (GRN mRNA)” value (Table 10, 3.75 nM, 48 hours, normalized to CO-1589) worked out at 1.2 FC. Under setting [1], the “7.5 nM FC (GRN mRNA)” value worked out at 1.2 FC, the “30 nM FC (GRN mRNA)” value was 1.2 FC, the “60 nM FC (GRN mRNA)” value worked out at 1.2 FC and the “120 nM FC (GRN mRNA)” value is given as 1.3 FC. Moreover, the “15 nM FC (GRN mRNA)” value (Table 10, 15 nM, 48 hours, normalized to CO-1589) worked out at 1.3 FC.

In the case of “CO-4650: ASO designed to target intergenic enhancers (eRNA) (antisense eT*eA*eA*eG*eA*e[5mC]*eT*eT*eT*e[5mC]*e[5mC]*eA*eG*e[5mC]*eA*eT*eG*eT*e[5mC]*e[5mC])”, for the setting “normalized to CO-1589”, the “hGRN mRNA FC” value is 1.1 FC.

For “CO-4651: ASO designed to target intergenic enhancers (eRNA) (antisense eT*eA*eG*eG*e[5mC]*eA*e[5mC]*e[5mC]*e[5mC]*eA*eA*eG*eG*e[5mC]*eT*eT*eT*eA*eT*eT)”, the “hGRN mRNA FC” value (normalized to CO-1589) was 1.3 FC.

For the substance “CO-5266: CO-3423 with additional LNA tiling and PO bond modifications (antisense GGACTTGGGAGTGGTGACTG; 2'-MOE, mixed PS/PO, 5-methylcytosine; listed as RNA; modified_base 1..7: mod_base = OTHER; note = Phosphorothioate linkage; modified_base 17..20: mod_base = OTHER; modified_base 1..20: mod_base = OTHER; note = 2'-O-(2-methoxyethyl) ribonucleotide; modified_base 4)”, under setting [2], the “7.5 nM FC (GRN mRNA)” value is 1.0 FC, the “13 nM FC (GRN mRNA)” value was 1.0 FC, the “30 nM FC (GRN mRNA)” value amounted to 1.2 FC and the “60 nM FC (GRN mRNA)” value turned out to be 1.7 FC. In addition, under setting [2], the “120 nM FC (GRN mRNA)” value is 2.0 FC and the “150 nM FC (GRN mRNA)” value is 2.2 FC.

As to “CO-5267: CO-3423 with additional LNA tiling and PO bond modifications (antisense GGACTTGGGAGTGGTGACTG; 2'-MOE, mixed PS/PO, 5-methylcytosine; listed as RNA; modified_base 1..9: mod_base = OTHER; note = Phosphorothioate linkage; modified_base 17..20: mod_base = OTHER; modified_base 1..20: mod_base = OTHER; note = 2'-O-(2-methoxyethyl) ribonucleotide; modified_base 4)”, under setting [2], the “7.5 nM FC (GRN mRNA)” value is reported as 1.0 FC, the “13 nM FC (GRN mRNA)” value came to 1.0 FC, the “30 nM FC (GRN mRNA)” value was 1.2 FC and the “60 nM FC (GRN mRNA)” value amounted to 1.7 FC. In addition, under setting [2], the “120 nM FC (GRN mRNA)” value is reported as 1.9 FC and the “150 nM FC (GRN mRNA)” value is listed as 2.3 FC.

For “CO-5288: ASO based on CO-3463 incorporating additional LNA modifications (antisense lG*lG*eA*lT*lA*eG*lG*eA*lT*eA*lG*eG*lA*eG*l[5mC]*eG*lA*eG*l[5mC]*l[5mC])”, the “GRN mRNA upregulation as compared to control ASO CO-1589” value turned out to be 2 fold. For the same substance, under setting [3], the “7.5 nM FC (GRN mRNA)” value is given as 1.3 FC, the “13 nM FC (GRN mRNA)” value is 1.5 FC, the “30 nM FC (GRN mRNA)” value stood at 1.5 FC and the “60 nM FC (GRN mRNA)” value worked out at 1.9 FC. Moreover, under setting [3], the “120 nM FC (GRN mRNA)” value is recorded as 1.9 FC and the “150 nM FC (GRN mRNA)” value was 2.1 FC.

“CO-5289: ASO based on CO-3463 incorporating additional LNA modifications (antisense GGATAGGATAGGAGCGAGCC; LNA/MOE mixmer, PS backbone, 5-methylcytosine; listed as RNA; modified_base 1..20: mod_base = OTHER; note = Phosphorothioate linkage; modified_base 1..2: mod_base = OTHER; note = locked nucleic acid; modified_base 3: mod_base = OTHER; note = 2'-O-(2-methoxyethyl) ribonucleotide; modified_base 4: mod_base)”: the “GRN mRNA upregulation as compared to control ASO CO-1589” value is on record as 2 fold. For the same substance, under setting [3], the “7.5 nM FC (GRN mRNA)” value is on record as 1.4 FC, the “13 nM FC (GRN mRNA)” value was 1.4 FC, the “30 nM FC (GRN mRNA)” value is listed as 1.5 FC and the “60 nM FC (GRN mRNA)” value is 1.9 FC. In addition, under setting [3], the “120 nM FC (GRN mRNA)” value was 1.9 FC and the “150 nM FC (GRN mRNA)” value stood at 1.9 FC.

For “CO-6380: ASO based on parent ASO CO-3462 (antisense eA*eA*eA*eA*e[5mC]*eA*eA*eA*e[5mC]*eA*e[5mC]*eA*e[5mC]*eA*eA*eG*eT*e[5mC]*e[5mC]*eG)”, under setting [4], the “30 nM FC (GRN mRNA)” value was 0.8 FC, the “60 nM FC (GRN mRNA)” value was found to be 0.8 FC and the “120 nM FC (GRN mRNA)” value is given as 0.8 FC.

As to “CO-6381: ASO based on parent ASO CO-3462 (antisense eT*eG*eA*eT*e[5mC]*eA*eG*e[5mC]*eT*eT*eG*eG*eG*e[5mC]*eG*eA*e[5mC]*eT*eG*eA)”, under setting [4], the “30 nM FC (GRN mRNA)” value amounted to 0.8 FC, the “60 nM FC (GRN mRNA)” value is given as 0.7 FC and the “120 nM FC (GRN mRNA)” value is listed as 1.0 FC.

For the substance “CO-6382: ASO based on parent ASO CO-3462 (antisense e[5mC]*eT*eA*eT*eG*eA*eT*e[5mC]*eA*eG*e[5mC]*eT*eT*eG*eG*eG*e[5mC]*eG*eA*e[5mC])”, under setting [4], the “30 nM FC (GRN mRNA)” value stood at 0.8 FC, the “60 nM FC (GRN mRNA)” value was found to be 0.8 FC and the “120 nM FC (GRN mRNA)” value is given as 0.9 FC.

For the substance “CO-6383: ASO based on parent ASO CO-3462 (antisense eT*eA*eG*eG*eA*dG*dA*dA*dT*d[5mC]*dG*d[5mC]*dT*dT*dT*eG*eG*eG*eA*eG)”, under setting [4], the “30 nM FC (GRN mRNA)” value is given as 1.2 FC, the “60 nM FC (GRN mRNA)” value is reported as 1.0 FC and the “120 nM FC (GRN mRNA)” value stood at 1.2 FC.

As for “CO-6384: ASO based on parent ASO CO-3462 (antisense eG*eT*eA*eG*eG*eA*eG*eA*eA*eT*e[5mC]*eG*e[5mC]*eT*eT*eT*eG*eG*eG*eA)”, under setting [4], the “30 nM FC (GRN mRNA)” value was determined as 1.0 FC, the “60 nM FC (GRN mRNA)” value is recorded as 1.0 FC and the “120 nM FC (GRN mRNA)” value is 1.5 FC.

For “CO-6385: ASO based on parent ASO CO-3462 (antisense e[5mC]*eG*eG*eT*eA*eG*eG*eA*eG*eA*eA*eT*e[5mC]*eG*e[5mC]*eT*eT*eT*eG*eG)”, under setting [4], the “30 nM FC (GRN mRNA)” value turned out to be 1.1 FC, the “60 nM FC (GRN mRNA)” value is 1.2 FC and the “120 nM FC (GRN mRNA)” value stood at 1.3 FC.

For the substance “CO-6386: ASO based on parent ASO CO-3462 (antisense eG*e[5mC]*eG*eA*eG*e[5mC]*e[5mC]*eA*eG*e[5mC]*eT*e[5mC]*eA*eG*eT*eA*eG*e[5mC]*eT*e[5mC])”, under setting [4], the “30 nM FC (GRN mRNA)” value is 1.2 FC, the “60 nM FC (GRN mRNA)” value came out at 0.9 FC and the “120 nM FC (GRN mRNA)” value was 1.1 FC.

With “CO-6387: ASO based on parent ASO CO-3462 (antisense eT*eA*eG*eG*eA*dG*dA*dA*eT*d[5mC]*dG*e[5mC]*dT*dT*dT*eG*eG*eG*eA*eG)”, under setting [4], the “30 nM FC (GRN mRNA)” value is recorded as 1.3 FC, the “60 nM FC (GRN mRNA)” value amounted to 1.0 FC and the “120 nM FC (GRN mRNA)” value is on record as 1.1 FC.

Source of the values: patent US20250243488A1, “METHODS OF MODULATING PROGRANULIN EXPRESSION USING ANTISENSE OLIGONUCLEOTIDES TARGETING REGULATORY RNAS” (Camp4 Therapeutics Corporation, priority 2022, published 2025).
